# From patent US9474790B2, “Stable, protracted GLP-1/glucagon receptor co-agonists for medical use” (Novo Nordisk A/S, priority 2013, dated 2016)
# Numbered stars: 1 amine (or outer) side, 2 acyl side, 3 side chain; on linkers, the order of the positions; unused ones are H or OH. Bridge positions count the residues as written; N and C are the ends. Square brackets hold non-standard residues; d marks the D form. Side chains are listed from the residue outwards. Peptide text beside a SMILES is read from it. I, II: the chains in the order shown. * marks the point of attachment. C18 diacid = O=C(O)CCCCCCCCCCCCCCCCC(=O)*; γGlu = O=C(O)[C@H](CCC(=O)[*:2])N[*:1]; Ac4c = NC1(C(=O)O)CCC1; AEEA = NCCOCCOCC(=O)O; Aib = CC(C)(N)C(=O)O
# Molecular target: T1, human GLP-1 receptor (Homo sapiens, UniProt P43220)
# T1 construct: expressed in transfected cells; host or cells: BHK cells (parent BHKTS13), clone FCW467-12A/KZ10-1, with CRE luciferase
# T1 sequence (P43220 24-463): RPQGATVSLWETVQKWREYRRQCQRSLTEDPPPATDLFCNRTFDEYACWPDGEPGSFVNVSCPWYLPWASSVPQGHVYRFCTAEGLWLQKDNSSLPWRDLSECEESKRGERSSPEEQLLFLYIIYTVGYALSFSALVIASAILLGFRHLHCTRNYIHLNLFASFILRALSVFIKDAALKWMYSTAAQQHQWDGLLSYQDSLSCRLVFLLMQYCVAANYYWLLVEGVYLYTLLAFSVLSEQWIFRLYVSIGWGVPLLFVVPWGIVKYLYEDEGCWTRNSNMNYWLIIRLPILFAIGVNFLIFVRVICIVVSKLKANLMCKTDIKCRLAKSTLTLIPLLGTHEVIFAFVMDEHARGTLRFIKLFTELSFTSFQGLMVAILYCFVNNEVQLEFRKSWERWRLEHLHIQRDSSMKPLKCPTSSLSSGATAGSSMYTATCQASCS
# Assay: GLP-1 receptor potency, CRE luciferase reporter gene assay in BHK cells
# Format: cell-based
# Settings: BHK cells expressing human GLP-1 receptor, read-out: EC50 GLP-1R
# In short: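 Potency as cAMP-driven firefly luciferase signal after 3 h, 37° C exposure to 10-fold dilutions (final 1×10EE-13–1×10EE-6 M). Stable hGLP-1R/CRE-luc BHK clone, 5×10EE3 cells/well, medium containing 2% ovalbumin and 0.2% Pluronic F-68; EC50 (pM) from variable-slope non-linear regression.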
row,Structure (SMILES),EC50 [pM]
1,"CC(C)C[C@H](NC(=O)[C@H](Cc1ccc(O)cc1)NC(=O)[C@H](CCCCN)NC(=O)[C@H](CO)NC(=O)[C@H](CC(C)C)NC(=O)[C@H](CC(=O)O)NC(=O)[C@H](CO)NC(=O)[C@@H](NC(=O)[C@H](Cc1ccccc1)NC(=O)[C@@H](NC(=O)CNC(=O)[C@H](Cc1c[nH]cn1)NC(=O)C1(NC(=O)[C@@H](N)Cc2c[nH]cn2)CCC1)[C@@H](C)O)[C@@H](C)O)C(=O)N[C@@H](CCC(=O)O)C(=O)N[C@@H](CO)C(=O)N[C@@H](CCCNC(=N)N)C(=O)N[C@@H](CCCNC(=N)N)C(=O)N[C@@H](C)C(=O)N[C@@H](CCC(N)=O)C(=O)N[C@@H](CC(=O)O)C(=O)N[C@@H](Cc1ccccc1)C(=O)N[C@H](C(=O)N[C@@H](CCC(N)=O)C(=O)N[C@@H](Cc1c[nH]c2ccccc12)C(=O)N[C@@H](CC(C)C)C(=O)N[C@@H](CC(C)C)C(=O)N[C@@H](CCCCNC(=O)CNC(=O)[C@H](CO)NC(=O)[C@H](CCC(=O)O)NC(=O)CNC(=O)[C@H](CO)NC(=O)CC[C@H](NC(=O)CC[C@H](NC(=O)CCCCCCCCCCCCCCCCC(=O)O)C(=O)O)C(=O)O)C(=O)N[C@H](C(N)=O)[C@@H](C)O)C(C)C [Example 35, N^ε28-[2-[[(2S)-2-[[(2S)-4-carboxy-2-[[2-[[(2S)-2-[[(4S)-4-carboxy-4-[[(4S)-4-carboxy-4-(17-carboxyheptadecanoylamino)butanoyl]amino]butanoyl]amino]-3-hydroxypropanoyl]amino]acetyl]amino]butanoyl]amino]-3-hydroxypropanoyl]amino]acetyl]-[Acb2,His3,Leu10,Glu15, Leu27,Lys28]-Glucagon amide] (I: H-H[Ac4c]HGTFTSDLSKYLESRRAQDFVQWLLKT-NH2 / II: {C18 diacid-γGlu-γGlu}-SGESG; amide I:28-II:C; N-terminus assumed)",3
2,"CC(C)C[C@H](NC(=O)[C@H](Cc1ccc(O)cc1)NC(=O)[C@H](CCCCN)NC(=O)[C@H](CO)NC(=O)[C@H](CC(C)C)NC(=O)[C@H](CC(=O)O)NC(=O)[C@H](CO)NC(=O)[C@@H](NC(=O)[C@H](Cc1ccccc1)NC(=O)[C@@H](NC(=O)CNC(=O)[C@H](CCC(N)=O)NC(=O)C(C)(C)NC(=O)[C@@H](N)Cc1c[nH]cn1)[C@@H](C)O)[C@@H](C)O)C(=O)N[C@@H](CC(=O)O)C(=O)N[C@@H](C)C(=O)N[C@@H](CCCNC(=N)N)C(=O)N[C@@H](CCCNC(=N)N)C(=O)N[C@@H](C)C(=O)N[C@@H](CCCNC(=N)N)C(=O)N[C@@H](CCC(=O)O)C(=O)N[C@@H](Cc1ccccc1)C(=O)N[C@H](C(=O)N[C@@H](CCC(N)=O)C(=O)N[C@@H](Cc1c[nH]c2ccccc12)C(=O)N[C@@H](CC(C)C)C(=O)N[C@@H](CC(C)C)C(=O)N[C@@H](CC(N)=O)C(=O)N[C@@H](CCCCNC(=O)CC[C@H](NC(=O)CC[C@H](NC(=O)COCCOCCNC(=O)CC[C@H](NC(=O)CCCCCCCCCCCCCCCCC(=O)O)C(=O)O)C(=O)O)C(=O)O)C(N)=O)C(C)C [Example 39, N^ε29-[(4S)-4-carboxy-4-[[(4S)-4-carboxy-4-[[2-[2-[2-[[(4S)-4-carboxy-4-(17-carboxyheptadecanoylamino)butanoyl]amino]ethoxy]ethoxy]acetyl]amino]butanoyl]amino]butanoyl]-[Aib2,Leu10,Ala16,Arg20,Glu21,Leu27,Lys29]-Glucagon amide] (H-H[Aib]QGTFTSDLSKYLDARRAREFVQWLLNK([γGlu-γGlu-AEEA-γGlu-C18 diacid])-NH2; N-terminus assumed)",4
3,"CC(C)C[C@H](NC(=O)[C@H](CC(C)C)NC(=O)[C@H](Cc1c[nH]c2ccccc12)NC(=O)[C@H](CCC(N)=O)NC(=O)[C@@H](NC(=O)[C@H](Cc1ccccc1)NC(=O)[C@H](CCC(=O)O)NC(=O)[C@H](CCCNC(=N)N)NC(=O)[C@H](C)NC(=O)[C@H](CCCNC(=N)N)NC(=O)[C@H](CCCNC(=N)N)NC(=O)[C@H](CO)NC(=O)[C@H](CCC(=O)O)NC(=O)[C@H](CC(C)C)NC(=O)[C@H](Cc1ccc(O)cc1)NC(=O)[C@H](CCCCN)NC(=O)[C@H](CO)NC(=O)[C@H](CC(C)C)NC(=O)[C@H](CC(=O)O)NC(=O)[C@H](CO)NC(=O)[C@@H](NC(=O)[C@H](Cc1ccccc1)NC(=O)[C@@H](NC(=O)CNC(=O)[C@H](CCC(N)=O)NC(=O)C(C)(C)NC(=O)[C@@H](N)Cc1c[nH]cn1)[C@@H](C)O)[C@@H](C)O)C(C)C)C(=O)N[C@@H](CC(N)=O)C(=O)N[C@@H](CCCCNC(=O)CC[C@H](NC(=O)CC[C@H](NC(=O)COCCOCCNC(=O)CC[C@H](NC(=O)CCCCCCCCCCCCCCCCC(=O)O)C(=O)O)C(=O)O)C(=O)O)C(N)=O [Example 40, N^ε29-[(4S)-4-carboxy-4-[[(4S)-4-carboxy-4-[[2-[2-[2-[[(4S)-4-carboxy-4-(17-carboxyheptadecanoylamino)butanoyl]amino]ethoxy]ethoxy]acetyl]amino]butanoyl]amino]butanoyl]-[Aib2,Leu10,Glu15,Arg20,Glu21,Leu27,Lys29]-Glucagon amide] (H-H[Aib]QGTFTSDLSKYLESRRAREFVQWLLNK([γGlu-γGlu-AEEA-γGlu-C18 diacid])-NH2; N-terminus assumed)",4
4,CC(C)C[C@H](NC(=O)[C@H](CC(=O)O)NC(=O)[C@H](CC(C)C)NC(=O)[C@H](Cc1ccc(O)cc1)NC(=O)[C@H](CCCCN)NC(=O)[C@H](CO)NC(=O)[C@H](CC(C)C)NC(=O)[C@H](CC(=O)O)NC(=O)[C@H](CO)NC(=O)[C@@H](NC(=O)[C@H](Cc1ccccc1)NC(=O)[C@@H](NC(=O)CNC(=O)[C@H](CCC(N)=O)NC(=O)C1(NC(=O)[C@@H](N)Cc2c[nH]cn2)CCC1)[C@@H](C)O)[C@@H](C)O)C(=O)N[C@@H](CCCCN)C(=O)N[C@@H](CCCNC(=N)N)C(=O)N[C@@H](C)C(=O)N[C@@H](CCCNC(=N)N)C(=O)N[C@@H](CCC(=O)O)C(=O)N[C@@H](Cc1ccccc1)C(=O)N[C@H](C(=O)N[C@@H](CCC(N)=O)C(=O)N[C@@H](Cc1c[nH]c2ccccc12)C(=O)N[C@@H](CC(C)C)C(=O)N[C@@H](CC(C)C)C(=O)N[C@@H](CCCCNC(=O)CNC(=O)[C@H](CO)NC(=O)[C@H](CCC(=O)O)NC(=O)CNC(=O)[C@H](CO)NC(=O)CC[C@H](NC(=O)CC[C@H](NC(=O)CCCCCCCCCCCCCCCCC(=O)O)C(=O)O)C(=O)O)C(=O)N[C@H](C(N)=O)[C@@H](C)O)C(C)C [Example 48] (I: H-H[Ac4c]QGTFTSDLSKYLDLKRAREFVQWLLKT-NH2 / II: {C18 diacid-γGlu-γGlu}-SGESG; amide I:28-II:C; N-terminus assumed),44

# The remaining lines, values ahead:
row,EC50 [pM],Structure (SMILES)
1,6,"CC(C)C[C@H](NC(=O)[C@H](Cc1ccc(O)cc1)NC(=O)[C@H](CCCCN)NC(=O)[C@H](CO)NC(=O)[C@H](CC(C)C)NC(=O)[C@H](CC(=O)O)NC(=O)[C@H](CO)NC(=O)[C@@H](NC(=O)[C@H](Cc1ccccc1)NC(=O)[C@@H](NC(=O)CNC(=O)[C@H](CCC(N)=O)NC(=O)C1(NC(=O)[C@@H](N)Cc2c[nH]cn2)CCC1)[C@@H](C)O)[C@@H](C)O)C(=O)N[C@@H](CCC(=O)O)C(=O)N[C@@H](CO)C(=O)N[C@@H](CCCNC(=N)N)C(=O)N[C@@H](CCCNC(=N)N)C(=O)N[C@@H](C)C(=O)N[C@@H](CCCNC(=N)N)C(=O)N[C@@H](CCC(=O)O)C(=O)N[C@@H](Cc1ccccc1)C(=O)N[C@H](C(=O)N[C@@H](CCC(N)=O)C(=O)N[C@@H](Cc1c[nH]c2ccccc12)C(=O)N[C@@H](CC(C)C)C(=O)N[C@@H](CC(C)C)C(=O)N[C@@H](CCCCNC(=O)CC[C@H](NC(=O)CC[C@H](NC(=O)COCCOCCNC(=O)COCCOCCNC(=O)CC[C@H](NC(=O)CC[C@H](NC(=O)CCCCCCCCCCCCCCCCC(=O)O)C(=O)O)C(=O)O)C(=O)O)C(=O)O)C(=O)N[C@H](C(N)=O)[C@@H](C)O)C(C)C [Example 61, N^ε28-[(4S)-4-carboxy-4-[[(4S)-4-carboxy-4-[[2-[2-[2-[[2-[2-[2-[[(4S)-4-carboxy-4-[[(4S)-4-carboxy-4-(17-carboxyheptadecanoylamino)butanoyl]amino]butanoyl]amino]ethoxy]ethoxy]acetyl]amino]ethoxy]ethoxy]acetyl]amino]butanoyl]amino]butanoyl]-[Acb2,Leu10,Glu15,Arg20,Glu21,Leu27,Lys28]-Glucagon amide] (H-H[Ac4c]QGTFTSDLSKYLESRRAREFVQWLLK([γGlu-γGlu-AEEA-AEEA-γGlu-γGlu-C18 diacid])T-NH2; N-terminus assumed)"
2,6,CC(C)C[C@H](NC(=O)[C@H](Cc1ccc(O)cc1)NC(=O)[C@H](CCCCN)NC(=O)[C@H](CO)NC(=O)[C@H](CC(C)C)NC(=O)[C@H](CC(=O)O)NC(=O)[C@H](CO)NC(=O)[C@@H](NC(=O)[C@H](Cc1ccccc1)NC(=O)[C@@H](NC(=O)CNC(=O)[C@H](CCC(N)=O)NC(=O)C(C)(C)NC(=O)[C@@H](N)Cc1c[nH]cn1)[C@@H](C)O)[C@@H](C)O)C(=O)N[C@@H](CC(=O)O)C(=O)N[C@@H](C)C(=O)N[C@@H](CCCNC(=N)N)C(=O)N[C@@H](CCCNC(=N)N)C(=O)N[C@@H](C)C(=O)N[C@@H](CCCNC(=N)N)C(=O)N[C@@H](CC(=O)O)C(=O)N[C@@H](Cc1ccccc1)C(=O)N[C@H](C(=O)N[C@@H](CCC(N)=O)C(=O)N[C@@H](Cc1c[nH]c2ccccc12)C(=O)N[C@@H](CC(C)C)C(=O)N[C@@H](CC(C)C)C(=O)N[C@@H](CC(N)=O)C(=O)N[C@@H](CCCCNC(=O)CC[C@H](NC(=O)CC[C@H](NC(=O)COCCOCCNC(=O)COCCOCCNC(=O)CC[C@H](NC(=O)CCCCCCCCCCCCCCCCC(=O)O)C(=O)O)C(=O)O)C(=O)O)C(N)=O)C(C)C [Example 65] (H-H[Aib]QGTFTSDLSKYLDARRARDFVQWLLNK([γGlu-γGlu-AEEA-AEEA-γGlu-C18 diacid])-NH2; N-terminus assumed)
